From patent US20240391870A1 (Arcturus Therapeutics, Inc., priority 2023, published 2024)
Like-named read-outs stand apart in the source and are kept apart here.

Tests used:
factor VII = assay: Factor VII knock down evaluation (LNP with FVII siRNA); format: in vivo, Balb/C mice; details: Table 3; 0.03 mg/kg
Summary of the method: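 Female Balb/C mice, 7–8 weeks old, received FVII siRNA lipid nanoparticles intravenously at 0.03 or 0.01 mg/kg. Plasma was collected 48 h later and FVII protein measured by chromogenic assay at 405 nm against a control plasma calibration curve. Levels are relative to saline-treated controls.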

[1] = Measured pKa in the indicated formulation
Procedure: Measured pKa values were determined based on the pH measured in the indicated formulation (i.e., EPO or FVII formulation).

[2] = Lipid nanoparticle size, PDI and encapsulation; format: physicochemical; details: Table 3; for Size (nm): lipid nanoparticle; for EE %: lipid nanoparticle encapsulation
Procedure: In the context of nucleic acids, full encapsulation may be determined by performing a membrane-impermeable fluorescent dye exclusion assay, which uses a dye that has enhanced fluorescence when associated with nucleic acid. Encapsulation is determined by adding the dye to a lipid formulation, measuring the resulting fluorescence, and comparing it to the fluorescence observed upon addition of a small amount of nonionic detergent. Detergent-mediated disruption of the lipid layer releases the encapsulated nucleic acid, allowing it to interact with the membrane-impermeable dye. Nucleic acid encapsulation may be calculated as E=(I0−I)/I0, where I and I0 refer to the fluorescence intensities before and after the addition of detergent.

hEPO = hEPO mRNA expression evaluation (hEPO-LNPs); format: in vivo, Balb/c mice; details: Table 3; 0.3 mg/kg
[3] = In vivo biodegradability assay (lipid in liver); details: Table 3; liver tissue, 0.3 mg/kg dose
Procedure: (§1) In vivo biodegradability assay was performed to assess the biodegradability of lipids in the LNP. Briefly, mice were injected with either 0.1 or 0.03 mg/Kg dose and after 24 or 48 hours mice livers were collected. To measure the concentration of lipids in the mouse liver, liver samples were homogenized in appropriate buffer in 1-10 dilution and mixed with the same amount of stabilized plasma. The samples were then mixed with organic solvents spiked with internal standard to precipitate proteins. After centrifugation, supernatant was diluted further with organic solvent before sample analysis by LC-MS. In LC-MS analysis, positive electrospray ionization was used, and multiple reaction monitoring (MRM) parameters were set up to specifically target the lipid analyte and internal standard. Calibration standards were prepared in stabilized plasma and mixed with same amount of homogenization buffer before protein precipitation. Quality control samples with known amounts of lipid was prepared in blank liver homogenate to monitor the precision and accuracy of the assay.

[4] = Lipid nanoparticle size, PDI and encapsulation; format: physicochemical; details: Table 3
[5] = mouse, in vivo
Procedure: as §1

| Compound | FVII KD % @ 0.03 mg/kg (factor VII) | pKa [1] | Size (nm) [2] | EE % [2] | EPO expression in ng/mL @ 0.3 mg/kg (hEPO) | Invivo lipid degradability ng/g of Liver tissue @ 0.3 mg/kg dose [3] | PDI [4] | Invivo lipid degradability ng/g of Liver tissue @ 0.3 mg/kg dose [5] | pKa ([1]; Table 3, formulation not indicated) |
| --- | --- | --- | --- | --- | --- | --- | --- | --- | --- |
| CC1CCC(CCC(=O)OCC(C)(COC(=O)CCC2CCC(C)CC2)COC(=O)CCN(CCCCCN(C)C)CCC(=O)OCC(C)(COC(=O)CCC2CCC(C)CC2)COC(=O)CCC2CCC(C)CC2)CC1 (centres unmarked) [Lipid 50, (((3,3′-((5-(dimethylamino)pentyl)azanedivl)bis(propanovl))bis(oxy))bis(methylene))bis(2-methylpropane-2,1,3-triyl)tetrakis(3-(4-methylcyclohexyl) propanoate)] | 93.5% | 7.04 | 97.08 nm | 94.7% | 579.2 ng/mL | 28100 ng/g | 0.13 | – | – |
| Cc1ccc(CCC(C)C(=O)OCC(COC(=O)C(C)CCc2ccc(C)cc2)OC(=O)CCCN(CCCC(=O)OC(COC(=O)C(C)CCc2ccc(C)cc2)COC(=O)C(C)CCc2ccc(C)cc2)C(=O)SCCCN(C)C)cc1 (centres unmarked) [Lipid 63, ((4,4′-((((3-(dimethylamino)propyl)thio)carbonyl)azanediyl)bis(butanoyl))bis(oxy))bis(propane-2,1,3-triyl)tetrakis(2-methyl-4-(p-tolyl)butanoate)] | 76.17% | – | 82.65 nm | 85.9% | 4601 ng/mL | – | 0.046 | 603 ± 57.6 ng/g | – |
| CC1CCC(CCC(=O)OCC(C)(COC(=O)CCC2CCC(C)CC2)COC(=O)CCC(CCC(=O)OCC(C)(COC(=O)CCC2CCC(C)CC2)COC(=O)CCC2CCC(C)CC2)OC(=O)CCCN(C)C)CC1 (centres unmarked) [Lipid 51, Bis(2-methyl-3-((3-(4-methylcyclohexyl)propanoyl)oxy)-2-(((3-(4-methylcyclohexyl)propanoyl)oxy)methyl)propyl) 4-((4-(dimethylamino)butanoyl)oxy)heptanedioate] | 65.23% | 6.53 | 65.71 nm | 90.4% | 868.5 ng/mL | 36000 ng/g | 0.059 | – | – |
| CCCCCCC(C)(C)C(=O)OCC(COC(=O)CCCN(CCCC(=O)OCC(COC(=O)C(C)(C)CCCCCC)COC(=O)C(C)(C)CCCCCC)C(=O)SCCCN(C)C)COC(=O)C(C)(C)CCCCCC [Lipid 55] | 72.17% | 6.59 | 71.78 nm | 93.0% | 10312.89 ng/mL | 63300 ng/g | 0.103 | – | – |
| CCCCCC(C)(C)C(=O)OCC(C)(COC(=O)CCCN(CCCC(=O)OCC(C)(COC(=O)C(C)(C)CCCCC)COC(=O)C(C)(C)CCCCC)C(=O)SCCCN(C)C)COC(=O)C(C)(C)CCCCC [Lipid 56] | 46.3% | 6.55 | 67.34 nm | 91.5% | 5463.76 ng/mL | 81900 ng/g | 0.081 | – | – |
| CN(C)CCCSC(=O)N(CCCC(=O)OCC(COC(=O)CCC1CCCCC1)COC(=O)CCC1CCCCC1)CCCC(=O)OCC(COC(=O)CCC1CCCCC1)COC(=O)CCC1CCCCC1 [Lipid 52] | 69.66% | 7.2 | 77.62 nm | 90.8% | 17888.62 ng/mL | BLOQ | 0.038 | – | – |
| CCn1cc(CCC(C)C(=O)OCC(COC(=O)C(C)CCc2cn(CC)c3ccccc23)OC(=O)CCCN(CCCC(=O)OC(COC(=O)C(C)CCc2cn(CC)c3ccccc23)COC(=O)C(C)CCc2cn(CC)c3ccccc23)C(=O)SCCCN(C)C)c2ccccc21 (centres unmarked) [Lipid 43, ((4,4′-((((3-(dimethylamino)propyl)thio)carbonyl)azanediyl)bis(butanoyl))bis(oxy))bis(propane-2,1,3-triyl)tetrakis(4-(1-ethyl-1H-indol-3-yl)-2-methylbutanoate)] | 15.24% | – | 92.35 nm | 90% | 14.3 ng/mL | 1970 ± 379 ng/g | 0.05 | – | 6.33 |
| CC1CCC(CCC(=O)OCC(C)(COC(=O)CCC2CCC(C)CC2)COC(=O)CCN(CCC(=O)OCC(C)(COC(=O)CCC2CCC(C)CC2)COC(=O)CCC2CCC(C)CC2)C(=O)OCCCN(C)C)CC1 (centres unmarked) [Lipid 46] | 82.9% | 7.08 | 81.62 nm | 91.5% | 958.2 ng/mL | – | 0.114 | – | – |
| CCCCCCCC(=O)OCC(C)(COC(=O)CCCCCCC)COC(=O)CCCN(CCCC(=O)OCC(C)(COC(=O)CCCCCCC)COC(=O)CCCCCCC)C(=O)SCCCN(C)C [Lipid 54] | 86.88% | 7.3 | 76.03 nm | 90.9% | 25548.45 ng/mL | BLOQ | 0.072 | – | – |
| CN(C)CCCSC(=O)N(CCCC(=O)OCC(C)(COC(=O)CCC1CCCCC1)COC(=O)CCC1CCCCC1)CCCC(=O)OCC(C)(COC(=O)CCC1CCCCC1)COC(=O)CCC1CCCCC1 [Lipid 53, ((4,4′-((((3-(Dimethylamino)propyl)thio)carbonyl)azanediyl)bis(butanoyl))bis(oxy))bis(methylene))bis(2-methylpropane-2,1,3-triyl)tetrakis(3 cyclohexylpropanoate)] | 85.45% | 6.93 | 85.94 nm | 93.1% | 15844.04 ng/mL | 14200 ng/g | 0.076 | – | – |
